Data taken from publication PMC4941645, “Oxidative Stress Induced by Pt(IV) Pro-drugs Based on the Cisplatin Scaffold and Indole Carboxylic Acids in Axial Position” (Scientific Reports, 2016).

How the values were obtained:
A375 cells = test: ROS production (CM-H2DCFDA probe); format: cell-based, human; details: A375, 12.5 μM, compared with antimycin positive control
Experimental: ROS are products of normal cell metabolism but their levels can be increased upon exposure to toxic agents or interference with the cellular redox network. […] Consequently, cellular ROS levels upon treatment with equal doses (12.5 μM) of the different platinum complexes were monitored in A375 cancer cells by using the peroxide-sensitive fluorescent probe CM-H2DCFDA (5-(and-6)-chloromethyl-2′,7′-dichlorodihydrofluorescein diacetate, acetyl ester). Antimycin, a classical inhibitor of the mitochondrial respiratory chain at the level of complex III, was used as a positive control.
Figure 8 ROS production in A375 cells. Cells were preincubated in PBS/10 mM glucose medium for 20 min at 37 °C in the presence of 10 μM CM-DCFDA and then treated with equimolar doses (12.5 μM) of indole propionic acid Pt(IV) derivatives (panel A) or indole acetic acid Pt(IV) derivatives (panel B). The fluorescence of DCF was measured.
The production of ROS was measured in A375 cells (10^4 per well) grown for 24 h in 96-well plates in DMEM medium without phenol red (Sigma Chemical Co.). Cells were then washed with PBS and loaded with 10 μM 5-(and-6)-chloromethyl-2′,7′-dichlorodihydrofluorescein diacetate, acetyl ester (CM–H2DCFDA) (Molecular Probes-Invitrogen) for 25 min in the dark. Afterwards, cells were washed with PBS and incubated with increasing concentrations of the tested complexes. The fluorescence increase was estimated with a plate reader (Fluoroskan Ascent FL, Labsystem, Finland) at 485 (excitation) and 527 nm (emission). Antimycin (3 μM, Sigma Chemical Co.), a potent inhibitor of Complex III in the electron transport chain, was used as positive control.

[1] = test system: MCF-7 breast carcinoma cells; test: MTT cytotoxicity test, MCF-7; format: cell-based, human; details: ± S.D.
Experimental: (§1) The cytotoxic activity of the complexes and of the uncoordinated ligands was evaluated by the MTT test on a panel of human tumor cell lines containing examples of pancreatic (BxPC3), colorectal (HCT-15), breast (MCF-7), cervical (A431), and lung (A549) cancers as well as of melanoma (A375). For comparison purposes, the cytotoxicity of cisplatin was evaluated under the same experimental conditions.
(§2) Cisplatin was dissolved in 0.9% NaCl solution.
(§3) Human breast (MCF-7), colon (HCT-15), lung (A549) and pancreatic (BxPC3) carcinoma cell lines together with melanoma (A375) cells were obtained from American Type Culture Collection (ATCC, Rockville, MD). The human ovarian cancer cell line 2008 and its cisplatin resistant variant, C13*, were kindly provided by Prof. G. Marverti (Department of Biomedical Science of Modena University, Italy). Human cervical carcinoma (A431) cells were kindly provided by Prof. F. Zunino (Division of Experimental Oncology B, Istituto Nazionale dei Tumori, Milan, Italy). Cell lines were maintained in the logarithmic phase at 37 °C in a 5% carbon dioxide atmosphere using the following culture media containing 10% fetal calf serum (Euroclone, Milan, Italy), antibiotics (50 units/mL penicillin and 50 μg/mL streptomycin) and 2 mM L-glutamine: (i) RPMI-1640 medium (Euroclone) for 2008, C13*, MCF-7, HCT-15, A431 and BxPC3 cells, (ii) F-12 HAM’S (Sigma Chemical Co.) for A549 cells, iii) DMEM (Sigma Chemical Co.) for A375 cells.
(§4) The growth inhibitory effect toward tumor cells was evaluated by means of the MTT assay. Briefly, (3–8) × 10^3 cells/well, dependent upon the growth characteristics of the cell line, were seeded in 96-well microplates in growth medium (100 μL). After 24 h, the medium was removed and replaced with fresh medium containing the compound to be studied at the appropriate concentration. Triplicate cultures were established for each treatment. After 24, 48, or 72 h, each well was treated with 10 μL of a 5 mg/mL MTT saline solution and, after 5 h of incubation, 100 μL of a sodium dodecylsulfate (SDS) solution in 0.01 M HCl was added. After an overnight incubation, cell growth inhibition was detected by measuring the absorbance of each well at 570 nm using a Bio-Rad 680 microplate reader. The mean absorbance for each drug dose was expressed as a percentage of the control, untreated well absorbance and plotted vs drug concentration. The IC50 values, the drug concentrations that decrease the mean absorbance at 570 nm to 50% of that of untreated control wells, were calculated from the dose–response curves with the four-parameter logistic model (4PL). The final value is the mean ± S.D. of at least three independent experiments performed in triplicate.

[2] = test system: C13* cisplatin-resistant ovarian cancer cells; test: MTT cytotoxicity test, cisplatin-resistant C13*; format: cell-based, human; details: for IC50: C13* cisplatin-resistant, 72 h, MTT, ± S.D.; for RF (resistance factor): IC50 resistant (C13*) / parent line (2008)
Experimental: The cytotoxic properties of the complexes were also evaluated in a pair of tumor cell lines suitably selected for their sensitivity and resistance to cisplatin (adenocarcinoma cells 2008/C13^*). Cross-resistance profiles were evaluated by means of the resistance factor (RF), defined as the ratio between IC50 values calculated for the resistant cells and those obtained with the sensitive ones (Table 2). The phenomenon of cisplatin resistance is multifactorial in nature.
as §2, §3, §4

[3] = test system: 2008 ovarian cancer cells; test: MTT cytotoxicity test, cisplatin-sensitive 2008; format: cell-based, human; details: 2008 cisplatin-sensitive, 72 h, ± S.D.
Experimental: The cytotoxic properties of the complexes were also evaluated in a pair of tumor cell lines suitably selected for their sensitivity and resistance to cisplatin (adenocarcinoma cells 2008/C13^*). Cross-resistance profiles were evaluated by means of the resistance factor (RF), defined as the ratio between IC50 values calculated for the resistant cells and those obtained with the sensitive ones (Table 2). The phenomenon of cisplatin resistance is multifactorial in nature. Nevertheless, the main molecular mechanisms involved in drug resistance in C13* cancer cells have largely been identified. Indeed, in this cell line resistance is correlated to high cellular glutathione and thioredoxin reductase levels, reduced cellular drug uptake and enhanced repair of DNA damage. […] The RF values calculated for all derivatives were six- to nine-fold lower than that of cisplatin, clearly indicating the absence of cross-resistance.
as §2
Triplicate cultures were established for each treatment.

[4] = Log P octanol/water, shake flask method with ICP-MS; format: physicochemical; details: n-octanol / 0.9% NaCl water, Pt by ICP-MS
Experimental: Partition coefficients (logP values) for octanol/water partition were determined in order to examine whether a correlation exists between lipophilicity and accumulation into cells. The log P values obtained (Table 3) give the trend in lipophilicity as mono indole acid complex < succinate complex < acetate complex < bis indole acid complex < benzoate complex for both the IAA and the IPA series.
The logP values of the Pt(IV) compounds were determined using the shake flask method. The respective Pt(IV) complex was dissolved in 0.9% NaCl (w/v) ultrapure water (presaturated with n-octanol). The solutions were sonicated and filtered to remove undissolved Pt(IV) compounds. The initial Pt concentrations were determined by ICP-MS. Subsequently, the Pt(IV) solutions were added to an equal volume of n-octanol (presaturated with 0.9% NaCl (w/v) ultrapure water). The heterogeneous mixtures were shaken vigorously for 30 min before centrifuging at 4000 rpm for 30 min to achieve phase separation. The final Pt concentration in the aqueous phase was determined again by ICP-MS. The logarithm of the ratio of Pt concentrations in the organic and aqueous phases was calculated to determine the logP values. All experiments were done in duplicate.

[5] = test system: A549 lung carcinoma cells; test: cells; details: A549, 72 h
Experimental: as §1, §2, §3, §4

A375 melanoma cells [6] = test: MTT cytotoxicity test, A375; format: cell-based, human; details: ± S.D.
Experimental: as §1, §2, §3, §4

[7] = test system: BxPC3 pancreatic carcinoma cells; test: MTT cytotoxicity test, BxPC3; format: cell-based, human; details: BxPC3, 72 h, MTT, ± S.D.
Experimental: as §1, §2, §3, §4

[8] = test system: HCT-15 colon carcinoma cells; test: MTT cytotoxicity test, HCT-15; format: cell-based, human; details: HCT-15, 72 h, MTT, ± S.D.
Experimental: as §1, §2, §3, §4

[9] = test system: A431 cervical carcinoma cells; test: MTT cytotoxicity test, A431; format: cell-based, human; details: ± S.D.
Experimental: as §1, §2, §3, §4

[10] = test system: panel of human tumor cell lines (BxPC3, HCT-15, MCF-7, A431, A549, A375); test: MTT cytotoxicity, mean over panel of human tumor cell lines; format: cell-based; details: for IC50: mean over the six cell lines of Table 1, 72 h; for cytotoxic effect (in words): free ligands
Experimental: as §1, §4

A375 melanoma cells [11] = test: Cellular accumulation of Pt (GF-AAS); format: cell-based, human
[12] = test system: nuclear DNA of A375 cells; test: Nuclear DNA platination (GF-AAS); format: cell-based, human; details: A375, 5 μM, 24 h
Experimental: It is well known that the main cellular target of platinum complexes is the DNA, and platination of nuclear DNA is a critical step in triggering the death of cancer cells by platinum-based drugs. On this basis, the amount of platinum bound to nuclear DNA was also assessed in A375 cells treated with the tested Pt(IV) complexes. Cells were treated for 24 h with 5 μM of the tested complexes, the nuclear DNA was isolated and the amount of Pt in each sample was determined by means of GF-AAS analysis. The results expressed as pg Pt/ng DNA are depicted in Fig. 7. […] In particular, 1P led to a roughly 60-fold higher DNA platination level with respect to cisplatin.
A375 cells (3 × 10^6) were seeded in 10 cm Petri dishes in 10 mL of culture medium. Subsequently, cells were treated with the tested complexes (5 μM) for 24 h. The DNA was extracted and purified by a commercial spin column quantification kit (Qiagen DNeasy Blood and Tissue Kit). Only highly purified samples (A260/A230 ≅ 1.8 and […]) were included for analysis to avoid any artifacts. The samples were completely dried and re-dissolved in 200 μL of Milli-Q water (18.2 MΩ) for at least 20 min at 65 °C in a shaking thermo-mixer, mineralized and analyzed for total Pt content by GF-AAS as described above.

[13] = Homo sapiens, MCF7, MCF-7, 72 h
[14] = Homo sapiens, A-375, A375, 72 h
[15] = Homo sapiens, A-431, A431, 72 h

SMILES	ROS production (in words) (A375 cells)	IC50 ([1]; MCF-7, 72 h) [µM]	IC50 [2] [µM]	RF (resistance factor) [2]	IC50 [3] [µM]	Log P (octanol/water) [4]	IC50 ([5]; MTT, ± S.D.) [µM]	IC50 (A375 melanoma cells [6]; A375, 72 h) [µM]	IC50 [7] [µM]	IC50 [8] [µM]	IC50 ([9]; A431, 72 h) [µM]	IC50 [10] [µM]	further results
N.N.O=C(Cc1c[nH]c2ccccc12)[O][Pt]([Cl])([Cl])[O]C(=O)Cc1c[nH]c2ccccc12 [Complex 2A]	less effective compared to the positive control	3.7 ± 0.29	3.44 ± 0.59	0.3	11 ± 2.14	−0.068 ± 0.07	3.75 ± 1.31	1.85 ± 0.23	3.32 ± 0.21	25.2 ± 0.89	13.3 ± 0.84	–	–
N.N.O=C(CCc1c[nH]c2ccccc12)[O][Pt]([Cl])([Cl])[O]C(=O)CCc1c[nH]c2ccccc12 [Complex 2P]	–	5.54 ± 0.67	2.91 ± 0.64	0.4	8.37 ± 2.12	−0.051 ± 0.06	2.87 ± 1.59	1.35 ± 0.75	2.56 ± 0.65	14 ± 1.56	3 ± 0.35	4.9	–
[NH2][Pt]([NH2])([Cl])([Cl])([O]C(=O)CCC(=O)O)[O]C(=O)CCc1c[nH]c2ccccc12 [Complex 4P]	–	40.56 ± 0.08	> 50	–	> 50	−0.100 ± 0.05	11.8 ± 1.06	8.66 ± 4.03	> 50	42 ± 1.92	29.2 ± 4.19	30.4	cellular platinum accumulation (in words) (A375 melanoma cells [11]; A375, 1.5 and 3 μM, 6 and 24 h): lowest platinum accumulation; cellular uptake level, times lower than cisplatin (A375 melanoma cells [11]; A375, GF-AAS): about 7; DNA platination (in words) [12]: least effective
CC(=O)[O][Pt]([NH2])([NH2])([Cl])([Cl])[O]C(=O)CCc1c[nH]c2ccccc12 [Complex 5P]	–	21.01 ± 0.06	21.9 ± 2.48	1.2	18 ± 1.33	−0.080 ± 0.04	3.62 ± 0.18	3.15 ± 0.02	19.5 ± 0.68	14.03 ± 0.14	5.35 ± 2.11	11.1	DNA platination (in words) [12]: least effective
O=C(O)Cc1c[nH]c2ccccc12 [IAA, indole-3-acetic acid, reference compound]	no effect on cellular basal ROS levels	–	–	–	–	–	–	–	–	–	–	–	IC50 [1, 13]: > 50 µM; IC50 ([5]; Homo sapiens): > 50 µM; IC50 (A375 melanoma cells [6]; [14]): > 50 µM; IC50 ([7]; Homo sapiens, BXPC-3): > 50 µM; IC50 ([8]; Homo sapiens): > 50 µM; cytotoxic effect (in words) [10]: did not elicit any significant cytotoxic effect; IC50 [9, 15]: > 50 µM
O=C(O)CCc1c[nH]c2ccccc12 [IPA, indole-3-propionic acid, reference compound]	no effect on cellular basal ROS levels	–	–	–	–	–	–	–	–	–	–	–	IC50 [1, 13]: > 50 µM; IC50 ([5]; Homo sapiens): > 50 µM; IC50 (A375 melanoma cells [6]; [14]): > 50 µM; IC50 ([7]; Homo sapiens, BXPC-3): > 50 µM; IC50 ([8]; Homo sapiens): > 50 µM; cytotoxic effect (in words) [10]: did not elicit any significant cytotoxic effect; IC50 [9, 15]: > 50 µM
N.N.[Cl][Pt][Cl] [cisplatin]	–	7.6 ± 2.96	–	10.5	2.26 ± 1.06	–	12.6 ± 0.81	2.06 ± 1.01	10.2 ± 1.65	15.5 ± 2.48	1.96 ± 0.84	8.33	–
